Assay results: US20120058135A1, “Identification and characterization of racemases, definition of protein signatures, and a test for detecting D-amino acid and for screening molecules capable of inhibiting the activity of racemase, especially proline racemase” (Institut Pasteur, priority 2010, published 2012)
“And” between values parts separate entries of the source, which are not always exact repeats. Equal entries are not always repeated. Each block holds one compound with its values, some of them ahead of it.

How the values were obtained:
D-AAO = biological target: T1, D-AAO (Sus scrofa, UniProt P00371); assay: D-AAO microplate test for detection of D-amino acids; type: biochemical, swine; details: raw OD
T1 construct: purchased Sigma A-5222; host or cells: swine kidney
T1 sequence (P00371 whole entry): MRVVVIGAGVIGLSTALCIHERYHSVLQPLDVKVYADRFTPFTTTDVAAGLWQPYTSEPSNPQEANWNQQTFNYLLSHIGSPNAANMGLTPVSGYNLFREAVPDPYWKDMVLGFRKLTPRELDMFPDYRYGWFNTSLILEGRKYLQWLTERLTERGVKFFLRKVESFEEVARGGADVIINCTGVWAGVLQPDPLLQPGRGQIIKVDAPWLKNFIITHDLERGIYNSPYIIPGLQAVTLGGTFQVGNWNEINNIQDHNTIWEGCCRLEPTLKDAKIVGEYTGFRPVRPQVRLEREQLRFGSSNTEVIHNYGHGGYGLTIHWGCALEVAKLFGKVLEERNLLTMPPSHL
Source text: The D-AAO/HRP test described here above can also be used for this purpose with slight modifications. For that purpose, the racemase reaction step should be skipped and the microplate test should start straightforward at the II-1-2.1-2 step described above with the following remarks:
1) Standard: It should not be an equimolar mixture of D- and L-amino acid, but rather a serial dilution of D-Amino acids. The choice of amino acid is made according to the interest of the D-amino acid under investigation. The final volume in wells should be of 87 μl.
2) Negative control: It is made with the L-enantiomer of the D-amino acid under investigation. The final volume should be 87 μl.
3) Blank: It is made with 87 μl buffer*. (See paragraph II.1.1 Materials.)
4) Samples: The samples to be tested should be adjusted to pH 8.3 with buffer* and their final volumes should be of 87 μl per well.
5) Then, the procedure follows steps 3) to 6), as above.
Different L- and D-amino acids were tested, namely Tyrosine (Tyr), Valine (Val), Threonine (Thr), Glutamic acid (Glu), Lysine (Lys) and Tryptophan (Try).

D-AAO/HRP = D-AAO/HRP (Sus scrofa, UniProt P00371); assay: Interference with the D-AAO/HRP reaction; type: biochemical, swine
D-AAO/HRP, sequence (P00371 whole entry): as above

[1] = biological target: native protein obtained from a soluble epimastigote fraction (proline racemase) (Trypanosoma cruzi, UniProt Q868H8); assay: Kinetic assays using the native protein from a soluble epimastigote fraction; type: biochemical
native protein obtained from a soluble epimastigote fraction (proline racemase), sequence (Q868H8 whole entry): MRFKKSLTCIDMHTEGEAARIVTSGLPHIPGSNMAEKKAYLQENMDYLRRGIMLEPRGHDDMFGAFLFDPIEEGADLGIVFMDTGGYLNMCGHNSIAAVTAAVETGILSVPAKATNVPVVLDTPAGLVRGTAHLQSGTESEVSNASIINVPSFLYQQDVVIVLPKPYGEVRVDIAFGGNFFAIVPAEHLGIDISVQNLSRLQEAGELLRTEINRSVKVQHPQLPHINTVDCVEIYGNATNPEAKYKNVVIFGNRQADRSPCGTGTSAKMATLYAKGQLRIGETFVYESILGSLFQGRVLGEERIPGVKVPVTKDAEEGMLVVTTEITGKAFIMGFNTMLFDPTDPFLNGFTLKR
Source text: The progress of racemization reaction was monitored polarimetrically, as previously described (13). […] Values obtained were confirmed by using the Kaleïdagraph® program and Michaelis-Menten equation. […] C.

[2] = system: non-infected monkey cell cultures
CsPR = biological target: T2, CsPR (Acetoanaerobium sticklandii, UniProt E3PTZ4); details: cited from earlier work
T2 sequence (E3PTZ4 1-335): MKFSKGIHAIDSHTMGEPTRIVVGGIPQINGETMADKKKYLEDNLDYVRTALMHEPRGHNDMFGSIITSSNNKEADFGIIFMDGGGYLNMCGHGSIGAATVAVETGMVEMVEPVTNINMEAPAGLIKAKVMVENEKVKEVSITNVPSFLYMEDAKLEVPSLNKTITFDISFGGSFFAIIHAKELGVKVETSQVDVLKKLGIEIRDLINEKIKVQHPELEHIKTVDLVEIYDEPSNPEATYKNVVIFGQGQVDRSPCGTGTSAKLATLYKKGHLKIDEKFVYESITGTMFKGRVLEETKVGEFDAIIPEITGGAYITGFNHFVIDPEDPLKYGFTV

B cells = details: TcPRAC inhibited by the compound; cited from earlier work

SMILES: N[C@@H](CCC(=O)O)C(=O)O [D-Glu, Glutamic acid]
Optical density at 490 nm after D-AAO reaction (D-AAO; D-enantiomers, 6.25 mM): 0.147 and 0.116

SMILES: NCCCC[C@H](N)C(=O)O [D-Lys, Lysine]
Optical density at 490 nm after D-AAO reaction (D-AAO; D-enantiomers, 6.25 mM): 0.243 and 0.157

Optical density at 490 nm after D-AAO reaction (D-AAO; D-enantiomers, 6.25 mM): 0.215 and 0.157
SMILES: C[C@@H](O)[C@H](N)C(=O)O [D-Thr, Threonine]

SMILES: N[C@@H](Cc1c[nH]c2ccccc12)C(=O)O [D-Try, Tryptophan]
Optical density at 490 nm after D-AAO reaction (D-AAO; D-enantiomers, 6.25 mM): 0.615 and 0.662

Optical density at 490 nm after D-AAO reaction (D-AAO; D-enantiomers, 6.25 mM): 1.317 and 0.991
SMILES: N[C@@H](Cc1ccc(O)cc1)C(=O)O [D-Tyr, Tyrosine]

SMILES: CC(C)[C@H](N)C(=O)O [D-Val, Valine]
Optical density at 490 nm after D-AAO reaction (D-AAO; D-enantiomers, 6.25 mM): 1.683 and 1.612

Optical density at 490 nm after D-AAO reaction (D-AAO; 0.05 mM): 0.173
Optical density at 490 nm after D-AAO reaction (D-AAO; 0.09 mM): 0.213 and 0.215
Optical density at 490 nm after D-AAO reaction (D-AAO; 0.19 mM): 0.308 and 0.32
Optical density at 490 nm after D-AAO reaction (D-AAO; 0.39 mM): 0.496 and 0.504
Optical density at 490 nm after D-AAO reaction (D-AAO; 0.77 mM): 0.809 and 0.824
Optical density at 490 nm after D-AAO reaction (D-AAO; 1.55 mM): 1.234 and 1.221
Optical density at 490 nm after D-AAO reaction (D-AAO; 3.09 mM): 1.716 and 1.879
Optical density at 490 nm after D-AAO reaction (D-AAO; 6.19 mM): 1.983 and 1.949
Optical density at 490 nm after D-AAO reaction (D-AAO; 12.37 mM): 1.814 and 1.976
Optical density at 490 nm after D-AAO reaction (D-AAO; 24.75 mM): 1.757 and 1.885
Optical density at 490 nm after D-AAO reaction (D-AAO; 49.5 mM): 1.961 and 2.004
SMILES: O=C(O)[C@H]1CCCN1 [D-pro, D-Proline]

SMILES: N[C@@H](CCC(=O)O)C(=O)O [L-Glu, Glutamic acid]
Optical density at 490 nm after D-AAO reaction (D-AAO; L-enantiomers, 12.5 mM): 0.131 and 0.141

SMILES: NCCCC[C@H](N)C(=O)O [L-Lys, Lysine]
Optical density at 490 nm after D-AAO reaction (D-AAO; L-enantiomers, 12.5 mM): 0.125 and 0.131

effect on D-AAO/HRP reaction (D-AAO/HRP): Inhibits
SMILES: O=C(O)[C@@H]1CCCN1 [L-Proline]

Optical density at 490 nm after D-AAO reaction (D-AAO; L-enantiomers, 12.5 mM): 0.124 and 0.128
SMILES: C[C@@H](O)[C@H](N)C(=O)O [L-Thr, Threonine]

SMILES: N[C@@H](Cc1c[nH]c2ccccc12)C(=O)O [L-Try, Tryptophan]
Optical density at 490 nm after D-AAO reaction (D-AAO; L-enantiomers, 12.5 mM): 0.131 and 0.138

Optical density at 490 nm after D-AAO reaction (D-AAO; L-enantiomers, 12.5 mM): 0.193 and 0.141
SMILES: N[C@@H](Cc1ccc(O)cc1)C(=O)O [L-Tyr, Tyrosine]

SMILES: CC(C)[C@H](N)C(=O)O [L-Val, Valine]
Optical density at 490 nm after D-AAO reaction (D-AAO; L-enantiomers, 12.5 mM): 0.135 and 0.129

SMILES: O=C(O)c1ccc[nH]1 [PAC, pyrrole-2-carboxylic acid]
Ki [1]: 1.15 µM
effect on D-AAO/HRP reaction (D-AAO/HRP): does not influence DAAO/HRP reaction
interference with cellular growth [2]: do not interfere with cellular growth
Ki (CsPR): 18 µM
TcPRAC B cell mitogenic ability (B cells): total loss of TcPRAC B cell mitogenic ability
